Source: the supplement of paper PMC10307832

Columns and labels:
Assay in all cases: relative viability (nuclei count vs DMSO), 5 days (fraction); higher = more cells survive
NCI-H2087 = system: NCI-H2087
Procedure, shortened: (§1)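 Relative viability divides the nuclei count in treated wells by that in vehicle wells. Lung cancer cell lines were seeded in 1536-well plates, dosed by pin tool the next day, and fixed and stained after 5 days in one step with final 0.05% Triton X-100, 1% formaldehyde and 1 ug/ml Hoechst. Dosing was a single drug or a fixed anchor-drug dose plus five library-drug doses (not always all listed) in √10 steps, and values are medians of duplicate plates imaged at 4×.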

BEN = system: BEN
Procedure, shortened: as §1

H3255 = system: H3255
Procedure, shortened: as §1

EPLC-272H = system: EPLC-272H
Procedure, shortened: as §1

HCC-827 = system: HCC-827
Procedure, shortened: as §1

NCI-H1666 = system: NCI-H1666
Procedure, shortened: as §1

LU99A = system: LU99A
Procedure, shortened: as §1

NCI-H647 = system: NCI-H647
Procedure, shortened: as §1

PC-3 [JPC-3] = system: PC-3 [JPC-3]
Procedure, shortened: as §1

NCI-H2342 = system: NCI-H2342
Procedure, shortened: as §1

LCLC-97TM1 = system: LCLC-97TM1
Procedure, shortened: as §1

NCI-H650 = system: NCI-H650
Procedure, shortened: as §1

SW 1573 = system: SW 1573
Procedure, shortened: as §1

LOU-NH91 = system: LOU-NH91
Procedure, shortened: as §1

NCI-H1975 = system: NCI-H1975
Procedure, shortened: as §1

NCI-H1437 = system: NCI-H1437
Procedure, shortened: as §1

NCI-H2170 = system: NCI-H2170
Procedure, shortened: as §1

NCI-H2085 = system: NCI-H2085
Procedure, shortened: as §1

HCC-44 = system: HCC-44
Procedure, shortened: as §1

COR-L 105 = system: COR-L 105
Procedure, shortened: as §1

EKVX = system: EKVX
Procedure, shortened: as §1

201T = system: 201T
Procedure, shortened: as §1

SMILES: Cc1sc2c(c1C)C(c1ccc(Cl)cc1)=N[C@@H](CC(=O)OC(C)(C)C)c1nnc(C)n1-2 [JQ1] + Nc1ncn([C@H]2C[C@H](O)[C@@H](CO)O2)c(=O)n1 [Decitabine] (partner 2 µM)
- relative viability (NCI-H2087; first compound 0.04 µM): 0.316
- relative viability (NCI-H2087; first compound 0.1265 µM): 0.251
- relative viability (NCI-H2087; first compound 0.4 µM): 0.262
- relative viability (NCI-H2087; first compound 1.265 µM): 0.151
- relative viability (NCI-H2087; first compound 4 µM): 0.18
- relative viability (BEN; first compound 0.04 µM): 0.712
- relative viability (BEN; first compound 0.1265 µM): 0.578
- relative viability (BEN; first compound 0.4 µM): 0.63
- relative viability (BEN; first compound 1.265 µM): 0.511
- relative viability (BEN; first compound 4 µM): 0.38
- relative viability (H3255; first compound 0.04 µM): 0.562
- relative viability (H3255; first compound 0.4 µM): 0.539
- relative viability (H3255; first compound 1.265 µM): 0.305
- relative viability (H3255; first compound 4 µM): 0.249
- relative viability (EPLC-272H; first compound 0.04 µM): 0.365
- relative viability (EPLC-272H; first compound 0.1265 µM): 0.352
- relative viability (EPLC-272H; first compound 0.4 µM): 0.323
- relative viability (EPLC-272H; first compound 1.265 µM): 0.246
- relative viability (EPLC-272H; first compound 4 µM): 0.253
- relative viability (HCC-827; first compound 0.04 µM): 0.34
- relative viability (HCC-827; first compound 0.1265 µM): 0.302
- relative viability (HCC-827; first compound 1.265 µM): 0.333
- relative viability (HCC-827; first compound 4 µM): 0.314
- relative viability (NCI-H1666; first compound 0.04 µM): 0.763
- relative viability (NCI-H1666; first compound 0.1265 µM): 0.745
- relative viability (NCI-H1666; first compound 0.4 µM): 0.577
- relative viability (NCI-H1666; first compound 1.265 µM): 0.589
- relative viability (NCI-H1666; first compound 4 µM): 0.504
- relative viability (LU99A; first compound 0.04 µM): 0.932
- relative viability (LU99A; first compound 0.4 µM): 0.623
- relative viability (LU99A; first compound 1.265 µM): 0.293
- relative viability (LU99A; first compound 4 µM): 0.254
- relative viability (NCI-H647; first compound 0.04 µM): 0.309
- relative viability (NCI-H647; first compound 0.1265 µM): 0.331
- relative viability (NCI-H647; first compound 0.4 µM): 0.344
- relative viability (NCI-H647; first compound 1.265 µM): 0.25
- relative viability (NCI-H647; first compound 4 µM): 0.203
- relative viability (PC-3 [JPC-3]; first compound 0.04 µM): 0.864
- relative viability (PC-3 [JPC-3]; first compound 0.1265 µM): 0.796
- relative viability (PC-3 [JPC-3]; first compound 0.4 µM): 0.778
- relative viability (PC-3 [JPC-3]; first compound 1.265 µM): 0.509
- relative viability (PC-3 [JPC-3]; first compound 4 µM): 0.561
- relative viability (NCI-H2342; first compound 0.04 µM): 0.79
- relative viability (NCI-H2342; first compound 0.1265 µM): 0.636
- relative viability (NCI-H2342; first compound 0.4 µM): 0.737
- relative viability (NCI-H2342; first compound 1.265 µM): 0.76
- relative viability (NCI-H2342; first compound 4 µM): 0.665
- relative viability (LCLC-97TM1; first compound 0.04 µM): 0.231
- relative viability (LCLC-97TM1; first compound 0.1265 µM): 0.223
- relative viability (LCLC-97TM1; first compound 0.4 µM): 0.188
- relative viability (LCLC-97TM1; first compound 1.265 µM): 0.156
- relative viability (LCLC-97TM1; first compound 4 µM): 0.125
- relative viability (NCI-H650; first compound 0.04 µM): 0.278
- relative viability (NCI-H650; first compound 0.1265 µM): 0.305
- relative viability (NCI-H650; first compound 0.4 µM): 0.316
- relative viability (NCI-H650; first compound 1.265 µM): 0.251
- relative viability (NCI-H650; first compound 4 µM): 0.249
- relative viability (SW 1573; first compound 0.04 µM): 0.366
- relative viability (SW 1573; first compound 0.1265 µM): 0.443
- relative viability (SW 1573; first compound 0.4 µM): 0.393
- relative viability (SW 1573; first compound 1.265 µM): 0.216
- relative viability (SW 1573; first compound 4 µM): 0.275
- relative viability (LOU-NH91; first compound 0.04 µM): 0.826
- relative viability (LOU-NH91; first compound 0.1265 µM): 0.725
- relative viability (LOU-NH91; first compound 0.4 µM): 0.554
- relative viability (LOU-NH91; first compound 1.265 µM): 0.491
- relative viability (LOU-NH91; first compound 4 µM): 0.521
- relative viability (NCI-H1975; first compound 0.04 µM): 0.393
- relative viability (NCI-H1975; first compound 0.1265 µM): 0.282
- relative viability (NCI-H1975; first compound 0.4 µM): 0.331
- relative viability (NCI-H1975; first compound 1.265 µM): 0.261
- relative viability (NCI-H1975; first compound 4 µM): 0.232
- relative viability (NCI-H1437; first compound 0.04 µM): 0.544
- relative viability (NCI-H1437; first compound 0.1265 µM): 0.577
- relative viability (NCI-H1437; first compound 0.4 µM): 0.55
- relative viability (NCI-H1437; first compound 1.265 µM): 0.486
- relative viability (NCI-H1437; first compound 4 µM): 0.37
- relative viability (NCI-H2170; first compound 0.04 µM): 0.415
- relative viability (NCI-H2170; first compound 0.1265 µM): 0.441
- relative viability (NCI-H2170; first compound 0.4 µM): 0.473
- relative viability (NCI-H2170; first compound 1.265 µM): 0.345
- relative viability (NCI-H2170; first compound 4 µM): 0.255
- relative viability (NCI-H2085; first compound 0.04 µM): 0.538
- relative viability (NCI-H2085; first compound 0.1265 µM): 0.595
- relative viability (NCI-H2085; first compound 0.4 µM): 0.509
- relative viability (NCI-H2085; first compound 1.265 µM): 0.454
- relative viability (NCI-H2085; first compound 4 µM): 0.473
- relative viability (HCC-44; first compound 0.04 µM): 0.955
- relative viability (HCC-44; first compound 0.1265 µM): 0.63
- relative viability (HCC-44; first compound 0.4 µM): 0.834
- relative viability (HCC-44; first compound 1.265 µM): 0.903
- relative viability (HCC-44; first compound 4 µM): 0.516
- relative viability (COR-L 105; first compound 0.04 µM): 0.558
- relative viability (COR-L 105; first compound 0.1265 µM): 0.457
- relative viability (COR-L 105; first compound 0.4 µM): 0.399
- relative viability (COR-L 105; first compound 1.265 µM): 0.33
- relative viability (COR-L 105; first compound 4 µM): 0.386
- relative viability (EKVX; first compound 0.04 µM): 0.338
- relative viability (EKVX; first compound 0.1265 µM): 0.36
- relative viability (EKVX; first compound 0.4 µM): 0.359
- relative viability (EKVX; first compound 1.265 µM): 0.35
- relative viability (EKVX; first compound 4 µM): 0.336
- relative viability (201T; first compound 0.04 µM): 0.88
- relative viability (201T; first compound 0.4 µM): 0.694
- relative viability (201T; first compound 1.265 µM): 0.527
- relative viability (201T; first compound 4 µM): 0.453
